In article PMC12527922, “Cocaine chemogenetics blunts drug-seeking by synthetic physiology” (Nature, 2025):
Where “and” joins values, the source holds several entries; their conditions need not be identical. Identical values can stand only once.

System: GRABDA dopamine sensor, nucleus accumbens shell
Assay: Fibre photometry of dopamine (GRABDA) after cocaine administration
Assay type: in vivo, rat
Set-up: GRABDA dopamine response per dose (sheet 4i), individual rats / GRABDA dopamine response per dose (sheet 4i), Mean: unit not given here
Details: for GRABDA dopamine signal, Mean / GRABDA dopamine signal, individual rats: Cocaine 5 mg/kg; for GRABDA dopamine signal, AVG: ED Fig. 9a, Cocaine 10 mg/kg
Method: Male Sprague–Dawley rats were anaesthetized with isoflurane (1.5–2%) and then placed onto a stereotaxic frame (Kopf) and injected with AAV5-Syn::coca-5HT3-IRES-mCherry (0.5 µl, 4.95 × 10^12 vg per ml) into the LHb (AP, −3.8 mm relative to bregma; ML, ±0.7 mm; DV, −5.25 mm, at a 10° angle) (n = 5) or underwent sham surgery (n = 6). Rats were also implanted with an optic fibre (400 µm core, 0.50 NA) attached to a 2.5 mm diameter ferrule (Thorlabs) directed to the medial shell of the nucleus accumbens (AP, +1.7 mm relative to bregma; ML, ±0.9 mm; DV, −7.0 mm). To ensure that AAV9-Syn::GRABDA1m was transduced at the direct vicinity of the fibre tip, we coated the fibre with the AAV (0.4 µl, 5 × 10^12 vg per ml) using a silk fibroin film before its implantation as previously described.
For fibre photometry, dopamine (GRABDA) dynamics were measured using a Tucker-Davis Technologies (TDT) system in anaesthetized rats. […] Data were acquired at 1 kHz. On the testing day, rats were anaesthetized (isoflurane: induction, 5%; maintenance, 3%) and attached to a photometry patch cord (400 μm core, 0.50 NA). GRABDA signals were then collected for 5 min, followed by a saline i.p. injection, and additional GRABDA signal measurement for 20 min. Cocaine was then injected i.p. at 20, 10 or 5 mg per kg, and the GRABDA signal was measured for an additional 20 min. Each rat was tested three times with cocaine doses administered in randomized order. Fibre photometry analyses were performed using scripts in MATLAB R2023b (MathWorks) based on codes from the Barker (https://github.com/djamesbarker)[64] and Lerner (https://github.com/talialerner/)[65] laboratories. […] The GRABDA signal was normalized to values at 1 min before saline or cocaine injection and shown as the average z-scored activity per min. […] Fibre photometry data are represented as mean ± s.e.m. Statistical analyses were performed using Prism 10 (GraphPad).

In the case of `COC(=O)[C@H]1[C@@H](OC(=O)c2ccccc2)C[C@@H]2CC[C@H]1N2C` [cocaine], the “GRABDA dopamine response per dose (sheet 4i), Mean” value (Coca-5HT3 rats, Dose 5 mg/kg) is reported as -63058.3, the “GRABDA dopamine response per dose (sheet 4i), individual rats” value (Coca-5HT3 rats, Dose 5 mg/kg) is reported as -172031 and 384223 and 532188 and -477527 and -582145 and the “GRABDA dopamine response per dose (sheet 4i), Mean” value (Coca-5HT3 rats, Dose 10 mg/kg) is reported as 347550. For the same compound, the “GRABDA dopamine response per dose (sheet 4i), individual rats” value (Coca-5HT3 rats, Dose 10 mg/kg) was 537591 and 787483 and 404806 and 428321 and -420452, the “GRABDA dopamine response per dose (sheet 4i), Mean” value (Coca-5HT3 rats, Dose 20 mg/kg) was 29421.8 and the “GRABDA dopamine response per dose (sheet 4i), individual rats” value (Coca-5HT3 rats, Dose 20 mg/kg) was -332785 and -760751 and 326619 and 420379 and 493647. For the same compound, the “GRABDA dopamine signal, Mean” value (Time 0, sheet 4g, 6 rats) was 0, the “GRABDA dopamine signal, Mean” value (Time 0, sheet 4h, 5 rats) was 0.3508 and the “GRABDA dopamine signal, Mean” value (Time 1, sheet 4g, 6 rats) was 0.02583. The “GRABDA dopamine signal, Mean” value (Time 1, sheet 4h, 5 rats) was 0.1222, the “GRABDA dopamine signal, Mean” value (Time 2, sheet 4g, 6 rats) was 0.2299 and the “GRABDA dopamine signal, Mean” value (Time 2, sheet 4h, 5 rats) was 0.04413. The “GRABDA dopamine signal, Mean” value (Time 3, sheet 4g, 6 rats) was 0.7586, the “GRABDA dopamine signal, Mean” value (Time 3, sheet 4h, 5 rats) was 0.02999 and the “GRABDA dopamine signal, individual rats” value (Time 4, sheet 4g) was 0.7973 and 0.9252 and 2.611 and 0.5744 and 0.4159 and 0.8485. For the same compound, the “GRABDA dopamine signal, Mean” value (Time 4, sheet 4g, 6 rats) was 1.0287, the “GRABDA dopamine signal, Mean” value (Time 4, sheet 4h, 5 rats) was -0.002503 and the “GRABDA dopamine signal, individual rats” value (Time 5, sheet 4g) was 1.23 and 1.254 and 3.178 and 1.255 and 0.28 and 0.3357. For the same compound, the “GRABDA dopamine signal, Mean” value (Time 5, sheet 4g, 6 rats) was 1.255, the “GRABDA dopamine signal, Mean” value (Time 5, sheet 4h, 5 rats) was 0.4003 and the “GRABDA dopamine signal, individual rats” value (Time 6, sheet 4g) was 1.399 and 1.386 and 3.378 and 1.497 and 0.2966 and 0.5676. The “GRABDA dopamine signal, Mean” value (Time 6, sheet 4g, 6 rats) was 1.4208, the “GRABDA dopamine signal, Mean” value (Time 6, sheet 4h, 5 rats) was 0.7136 and the “GRABDA dopamine signal, individual rats” value (Time 7, sheet 4g) was 1.395 and 1.753 and 3.423 and 2.3 and 0.321 and 1.639. For the same compound, the “GRABDA dopamine signal, Mean” value (Time 7, sheet 4g, 6 rats) was 1.805, the “GRABDA dopamine signal, Mean” value (Time 7, sheet 4h, 5 rats) was 0.8408 and the “GRABDA dopamine signal, individual rats” value (Time 8, sheet 4g) was 1.672 and 1.969 and 3.288 and 2.2806 and 0.5769 and 1.2461. For the same compound, the “GRABDA dopamine signal, Mean” value (Time 8, sheet 4g, 6 rats) was 1.839, the “GRABDA dopamine signal, Mean” value (Time 8, sheet 4h, 5 rats) was 0.8223 and the “GRABDA dopamine signal, individual rats” value (Time 9, sheet 4g) was 1.777 and 2.101 and 2.8254 and 2.6993 and 0.4303 and 1.7436. The “GRABDA dopamine signal, Mean” value (Time 9, sheet 4g, 6 rats) was 1.93, the “GRABDA dopamine signal, Mean” value (Time 9, sheet 4h, 5 rats) was 0.8303 and the “GRABDA dopamine signal, individual rats” value (Time 10, sheet 4g) was 1.667 and 2.313 and 2.507 and 2.586 and 1.167 and 0.977. For the same compound, the “GRABDA dopamine signal, Mean” value (Time 10, sheet 4g, 6 rats) was 1.869, the “GRABDA dopamine signal, Mean” value (Time 10, sheet 4h, 5 rats) was 0.9165 and the “GRABDA dopamine signal, individual rats” value (Time 11, sheet 4g) was 1.6386 and 2.495 and 2.468 and 3.874 and 0.606 and 2.597. The “GRABDA dopamine signal, Mean” value (Time 11, sheet 4g, 6 rats) was 2.28, the “GRABDA dopamine signal, Mean” value (Time 11, sheet 4h, 5 rats) was 0.6597 and the “GRABDA dopamine signal, individual rats” value (Time 12, sheet 4g) was 1.957 and 2.546 and 2.0788 and 2.652 and 0.8197 and 2.605. The “GRABDA dopamine signal, Mean” value (Time 12, sheet 4g, 6 rats) was 2.11, the “GRABDA dopamine signal, Mean” value (Time 12, sheet 4h, 5 rats) was 0.5883 and the “GRABDA dopamine signal, individual rats” value (Time 13, sheet 4g) was 1.603 and 2.238 and 1.918 and 2.979 and 1.082 and 2.101. For the same compound, the “GRABDA dopamine signal, Mean” value (Time 13, sheet 4g, 6 rats) was 1.987, the “GRABDA dopamine signal, Mean” value (Time 13, sheet 4h, 5 rats) was 0.5593 and the “GRABDA dopamine signal, individual rats” value (Time 14, sheet 4g) was 1.849 and 2.2953 and 1.648 and 2.627 and 1.351 and 2.787. For the same compound, the “GRABDA dopamine signal, Mean” value (Time 14, sheet 4g, 6 rats) was 2.093, the “GRABDA dopamine signal, Mean” value (Time 14, sheet 4h, 5 rats) was 0.3765 and the “GRABDA dopamine signal, individual rats” value (Time 15, sheet 4g) was 1.345 and 2.273 and 1.221 and 3.749 and 1.032 and 2.415. For the same compound, the “GRABDA dopamine signal, Mean” value (Time 15, sheet 4g, 6 rats) was 2.006, the “GRABDA dopamine signal, Mean” value (Time 15, sheet 4h, 5 rats) was 0.2825 and the “GRABDA dopamine signal, individual rats” value (Time 16, sheet 4g) was 1.5856 and 2.161 and 1.005 and 2.897 and 1.378 and 2.623. The “GRABDA dopamine signal, Mean” value (Time 16, sheet 4g, 6 rats) was 1.942, the “GRABDA dopamine signal, Mean” value (Time 16, sheet 4h, 5 rats) was 0.2717 and the “GRABDA dopamine signal, individual rats” value (Time 17, sheet 4g) was 1.282 and 2.066 and 0.8019 and 2.5132 and 1.107 and 1.846. The “GRABDA dopamine signal, Mean” value (Time 17, sheet 4g, 6 rats) was 1.6029, the “GRABDA dopamine signal, Mean” value (Time 17, sheet 4h, 5 rats) was 0.2019 and the “GRABDA dopamine signal, individual rats” value (Time 18, sheet 4g) was 1.176 and 1.956 (2×) and 0.485 and 2.977 and 1.512. For the same compound, the “GRABDA dopamine signal, Mean” value (Time 18, sheet 4g, 6 rats) was 1.677, the “GRABDA dopamine signal, Mean” value (Time 18, sheet 4h, 5 rats) was 0.2838 and the “GRABDA dopamine signal, individual rats” value (Time 19, sheet 4g) was 1.43 and 1.847 and 0.2727 and 2.8958 and 1.19 and 1.677. For the same compound, the “GRABDA dopamine signal, Mean” value (Time 19, sheet 4g, 6 rats) was 1.552, the “GRABDA dopamine signal, Mean” value (Time 19, sheet 4h, 5 rats) was 0.4407 and the “GRABDA dopamine signal, individual rats” value (Time -1, sheet 4g) was 0.1891 and 0.00306 and 0.03687 and -0.1715. For the same compound, the “GRABDA dopamine signal, Mean” value (Time -1, sheet 4g, 6 rats) was 0.08979, the “GRABDA dopamine signal, Mean” value (Time -1, sheet 4h, 5 rats) was -0.1218 and the “GRABDA dopamine response per dose (sheet 4i), Mean” value (Control rats, Dose 5 mg/kg) was 575620. For the same compound, the “GRABDA dopamine response per dose (sheet 4i), individual rats” value (Control rats, Dose 5 mg/kg) was 1106356 and 625102 and 499430 and 534300 and 481000 and 207530, the “GRABDA dopamine response per dose (sheet 4i), Mean” value (Control rats, Dose 10 mg/kg) was 513482 and the “GRABDA dopamine response per dose (sheet 4i), individual rats” value (Control rats, Dose 10 mg/kg) was 1063773 and 869765 and 258346 and 365520 and 172520 and 350970. For the same compound, the “GRABDA dopamine response per dose (sheet 4i), Mean” value (Control rats, Dose 20 mg/kg) was 564660, the “GRABDA dopamine response per dose (sheet 4i), individual rats” value (Control rats, Dose 20 mg/kg) was 543312 and 940737 and 382973 and 597550 and 499710 and 423680 and the “GRABDA dopamine signal, AVG” value (Time 0) was 0.01595. The “GRABDA dopamine signal, AVG” value (Time 1) was 0.04899, the “GRABDA dopamine signal, AVG” value (Time 2) was 0.1402 and the “GRABDA dopamine signal, AVG” value (Time 3) was 0.549. The “GRABDA dopamine signal, AVG” value (Time 4) was 0.7571.
